Results reported in patent US9029092B2, “Solution phase homogeneous assays” (Beckman Coulter, Inc., priority 2009, dated 2015).
Like-named read-outs stand apart in the source and are kept apart here.

Tested on: Rabbit anti cAMP
Source text: There are provided homogeneous immunoassays of an analyte utilizing a chemiluminescent-labeled capture antibody in combination with labeled analyte in a competitive immunoassay reaction. The example analyte cyclic-AMP (“cAMP”) is conjugated with HRP to provide a cAMP-HRP reagent, which competes for analyte cAMP at the capture antibody (“Capture Ab”) which is conjugated with AK5 to form a capture antibody-AK5 complex. […] Analyte (cAMP) which is not conjugated with HRP competes for the […], and upon addition of trigger solution the resulting capture antibody-AK5-cAMP complex provides no chemiluminescence (i.e., “No Light”). Accordingly, analyte cAMP competes for capture antibody-AK5 complex and thereby suppresses signal due to the capture antibody-AK1-cAMP-HRP complex.
Rabbit anti cAMP (IMMUNOTECH, Marseille) 0.1 mg (20.3 uL from 4.93 mg/mL stock) was added to 162 uL of 0.1 M sodium borate pH 8.25 buffer in 1.7 mL centrifuge tube. 17.6 ug of AK5 (17.6 ul from 1 mg/mL stock of DMF) was added. After quick vortex mixing tube was placed on a rotating shaker for 1 hour at room temperature. Reaction was quenched by adding 1.2 uL of L-lysine from 3 mg/mL stock. Reaction mixture was diluted (1:1) in 0.4% BSA and PBS and stored at 4 C. cAMP-HRP was prepared according to the literature. […] A 30 nM stock of cAMP was prepared in PBS and further diluted in PBS to make sample calibrators for the assay.
The competitive immunoassay protocol was as follows. AK5 labeled monoclonal Rabbit anti cAMP (0.275 ug/mL) (3 uL), HRP labeled cAMP (0.09375 ug/mL) (3 ul) and cAMP calibrators (4 ul) were added into a white polystyrene 384 low volume plate. Conjugate solutions were 0.2% in BSA. After incubation of 30 minutes at room temperature, 1 ul of 2-aminophenol (0.6875 mM) was added followed by a trigger solution (10 ul). The trigger solution contained 25 mM Tris pH 8, 8 mM p-hydroxycinnamic acid, 1 mM EDTA, 0.2% Tween-20 and 0.1 M ureaperoxide. Light intensity was measured (Spectromax) for one second immediately upon injection of trigger. Reactants were not exposed to light during incubation and were not shaken.

Structure (SMILES): Nc1ncnc2c1ncn2[C@@H]1O[C@@H]2COP(=O)(O)O[C@H]2[C@H]1O [cAMP, cyclic-AMP]
- Average (light intensity) (cAMP 0.412 nM): 83377
- Signal Suppression (cAMP 0.412 nM): 9%
- Average (light intensity) (cAMP 3.7 nM): 31156
- Signal Suppression (cAMP 3.7 nM): 66%
- Average (light intensity) (cAMP 33.3 nM): 943
- Signal Suppression (cAMP 33.3 nM): 99%
- Average (light intensity) (cAMP 100 nM): 315
- Signal Suppression (cAMP 100 nM): 100%
- Average (light intensity) (cAMP 1000 nM): 173
- Signal Suppression (cAMP 1000 nM): 100%
- Average (light intensity) (cAMP 10000 nM): 167
- Signal Suppression (cAMP 10000 nM): 100%
- IC50 (read-out: IC50 for cAMP, competition with cAMP-HRP at AK5-labeled antibody, 2-aminophenol as SSIA): 2.6 nM
